Assay [1] deals with hog renin. Conditions: after the injection of hog renin into nephrectomized rats; cited from earlier work.
The subject of assay [2] is renin enzyme prepared from hog kidney. In words: Renin assay (solid phase radioimmunoassay of angiotensin I). It is filed as biochemical. The settings on record: ratio of renin I50 to pepsin I50. On the procedure: The compound of Example 1 was evaluated against renin, employing a solid phase radioimmunossay adapted and modified from the assay of Ikedo et al., W. of Clinical Endocrinology and Metabolism, 54, 423-428, 1982), and pepsin assays as illustrated below:
Ten μl of the test inhibitor/broth extract from Example 1 was mixed with 5 μl of 0.11M phenylmethylsulfonyl fluoride and 0.25 ml of 0.1M potassium phosphate buffer, pH 7.0, containing 0.05% sodium azide and one mg/ml of bovine serum albumin. Twenty μl of 2 μg renin enzyme prepared from hog kidney was added and the mixture was incubated at 37° C. for 20 minutes. The enzyme reaction was initiated by adding 20 μl of substrate solution which was prepared by dissolving 4 mg of angiotensinogen in 4 ml of 0.1M potassium phosphate buffer, pH 7.0, containing 0.05% sodium azide and 1 mg/ml of BSA.
After 20 minutes' incubation at 37° C., the enzyme reaction was stopped by the addition of 100 μl of ^125 I-angiotensin I tracer-pepstatin. […] Two ml of water was then added to each tube and the solution was aspirated, with the tube with the ball being counted in a γ-counter.
The activity of the test compound was calculated based on the standard curve of known amount of angiotensin I.

Square brackets hold non-standard residues; d marks the D form. Peptide text beside a SMILES is read from it. * marks the point of attachment. Sta = CC(C)C[C@H](N)[C@@H](O)CC(=O)O; Isovaleryl = CC(C)CC(=O)*

`CC(C)CC(=O)N[C@H](C(=O)N[C@H](C(=O)N[C@@H](CC(C)C)[C@@H](O)CC(=O)N[C@@H](C)C(=O)N[C@@H](CC(C)C)[C@@H](O)CC(=O)O)C(C)C)C(C)C` [Pepstatin A] (Isovaleryl-VV[Sta]A[Sta]-OH): the “blood pressure in vivo” value in assay [1] is listed as “reduces blood pressure”. Further, the “I50 ratio of renin/pepsin” value in assay [2] is listed as 1160.

These data come from patent publication US4980283A, “Renin-inhibitory pepstatin phenyl derivatives” (Merck & Co., Inc., priority 1989, dated 1990).
